According to the NIST ThermoML archive (doi:10.1016/j.jct.2018.04.003):
± gives the expanded uncertainty stated by the source.

Assay: mn = molality of the nth substance listed, in mol/kg
Settings: 101.3 kPa, Liquid; for speed of sound: Frequency=2 MHz, Linear variable-path acoustic interferometer; for mass density: Pycnometric method

[Cl-].[K+] [potassium chloride] + O
Settings	mass density, 288.15 K [kg/m3]	mass density, 298.15 K [kg/m3]	mass density, 308.15 K [kg/m3]	speed of sound, 288.15 K [m/s]	speed of sound, 298.15 K [m/s]	speed of sound, 308.15 K [m/s]
m1 = 0.06	1002.26 ± 0.55	1000.42 ± 0.55	997.25 ± 0.56	1467.4 ± 1.8	1498.3 ± 1.8	1522.2 ± 1.8
m1 = 0.1	1003.48 ± 0.55	1001.79 ± 0.55	998.71 ± 0.56	1469.6 ± 1.8	1502.5 ± 1.8	1525.1 ± 1.8

NNC(=O)c1ccncc1 [isonicotinic acid hydrazide] + O
Settings	mass density [kg/m3]	speed of sound [m/s]
288.15 K, m1 = 0.0099	999.49 ± 0.55	1466.6 ± 1.8
288.15 K, m1 = 0.02	999.88 ± 0.55	1467.3 ± 1.8
288.15 K, m1 = 0.03	1000.26 ± 0.55	1468 ± 1.8
288.15 K, m1 = 0.0401	1000.64 ± 0.55	1468.7 ± 1.8
288.15 K, m1 = 0.0495	1001 ± 0.55	1469.4 ± 1.8
288.15 K, m1 = 0.055	1001.19 ± 0.55	1469.8 ± 1.8
288.15 K, m1 = 0.06	1001.38 ± 0.55	1470.1 ± 1.8
288.15 K, m1 = 0.065	1001.55 ± 0.55	1470.5 ± 1.8
288.15 K, m1 = 0.0708	1001.77 ± 0.55	1470.9 ± 1.8
288.15 K, m1 = 0.075	1001.92 ± 0.55	1471.2 ± 1.8
288.15 K, m1 = 0.0809	1002.12 ± 0.55	1471.6 ± 1.8
288.15 K, m1 = 0.0846	1002.25 ± 0.55	1471.9 ± 1.8
288.15 K, m1 = 0.0901	1002.45 ± 0.55	1472.3 ± 1.8
288.15 K, m1 = 0.0949	1002.62 ± 0.55	1472.6 ± 1.8
288.15 K, m1 = 0.1002	1002.81 ± 0.55	1473 ± 1.8
298.15 K, m1 = 0.0099	997.39 ± 0.55	1497.4 ± 1.8
298.15 K, m1 = 0.0197	997.69 ± 0.55	1498.1 ± 1.8
298.15 K, m1 = 0.0299	998.02 ± 0.55	1498.8 ± 1.8
298.15 K, m1 = 0.04	998.35 ± 0.55	1499.6 ± 1.8
298.15 K, m1 = 0.0499	998.67 ± 0.55	1500.3 ± 1.8
298.15 K, m1 = 0.055	998.83 ± 0.55	1500.6 ± 1.8
298.15 K, m1 = 0.0599	998.99 ± 0.55	1500.9 ± 1.8
298.15 K, m1 = 0.0649	999.15 ± 0.55	1501.3 ± 1.8
298.15 K, m1 = 0.0699	999.31 ± 0.55	1501.6 ± 1.8
298.15 K, m1 = 0.075	999.47 ± 0.55	1502 ± 1.8
298.15 K, m1 = 0.0797	999.61 ± 0.55	1502.3 ± 1.8
298.15 K, m1 = 0.085	999.78 ± 0.55	1502.7 ± 1.8
298.15 K, m1 = 0.0897	999.92 ± 0.55	1503 ± 1.8
298.15 K, m1 = 0.0949	1000.09 ± 0.55	1503.4 ± 1.8
298.15 K, m1 = 0.1006	1000.26 ± 0.55	1503.8 ± 1.9
308.15 K, m1 = 0.0099	994.3 ± 0.56	1520.5 ± 1.8
308.15 K, m1 = 0.0199	994.58 ± 0.56	1521.3 ± 1.8
308.15 K, m1 = 0.0301	994.85 ± 0.56	1522 ± 1.8
308.15 K, m1 = 0.04	995.12 ± 0.56	1522.7 ± 1.8
308.15 K, m1 = 0.0501	995.39 ± 0.56	1523.5 ± 1.8
308.15 K, m1 = 0.055	995.52 ± 0.56	1523.9 ± 1.8
308.15 K, m1 = 0.06	995.64 ± 0.56	1524.2 ± 1.8
308.15 K, m1 = 0.0649	995.76 ± 0.56	1524.6 ± 1.8
308.15 K, m1 = 0.0699	995.9 ± 0.56	1525 ± 1.8
308.15 K, m1 = 0.0751	996.03 ± 0.56	1525.3 ± 1.8
308.15 K, m1 = 0.0799	996.15 ± 0.56	1525.7 ± 1.8
308.15 K, m1 = 0.0851	996.28 ± 0.56	1526.1 ± 1.8
308.15 K, m1 = 0.09	996.41 ± 0.56	1526.4 ± 1.8
308.15 K, m1 = 0.095	996.53 ± 0.56	1526.8 ± 1.8
308.15 K, m1 = 0.1002	996.67 ± 0.56	1527.2 ± 1.8
